The assay concerns the target DGKα (Homo sapiens (Human), UniProt P23743). Nature of the assay: Human DGKα kinase activity inhibition assay (ADP-Glo). In kind it is biochemical. As to conditions: recombinant full-length human DGKα, 55 μM ATP, 7 μM 1,2-dioleoyl-sn-glycerol, read-out: IC50 values of examples in in vitro human DGKa kinase activity inhibition assays. The gist of the method:
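Activity was measured as ADP production, detected by luciferase luminescence after removal of unused ATP. The enzyme was baculovirus-expressed full-length human DGKα with a C-terminal FLAG tag. The substrate was 1,2-dioleoyl-sn-glycerol in detergent micelles, and compounds came from 100× DMSO solutions.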
In general terms: ADP-Glo turns the ADP formed in a reaction into a luminescent signal.
Chain of DGKα (P23743 other isoform, or with tags, fused parts or gaps): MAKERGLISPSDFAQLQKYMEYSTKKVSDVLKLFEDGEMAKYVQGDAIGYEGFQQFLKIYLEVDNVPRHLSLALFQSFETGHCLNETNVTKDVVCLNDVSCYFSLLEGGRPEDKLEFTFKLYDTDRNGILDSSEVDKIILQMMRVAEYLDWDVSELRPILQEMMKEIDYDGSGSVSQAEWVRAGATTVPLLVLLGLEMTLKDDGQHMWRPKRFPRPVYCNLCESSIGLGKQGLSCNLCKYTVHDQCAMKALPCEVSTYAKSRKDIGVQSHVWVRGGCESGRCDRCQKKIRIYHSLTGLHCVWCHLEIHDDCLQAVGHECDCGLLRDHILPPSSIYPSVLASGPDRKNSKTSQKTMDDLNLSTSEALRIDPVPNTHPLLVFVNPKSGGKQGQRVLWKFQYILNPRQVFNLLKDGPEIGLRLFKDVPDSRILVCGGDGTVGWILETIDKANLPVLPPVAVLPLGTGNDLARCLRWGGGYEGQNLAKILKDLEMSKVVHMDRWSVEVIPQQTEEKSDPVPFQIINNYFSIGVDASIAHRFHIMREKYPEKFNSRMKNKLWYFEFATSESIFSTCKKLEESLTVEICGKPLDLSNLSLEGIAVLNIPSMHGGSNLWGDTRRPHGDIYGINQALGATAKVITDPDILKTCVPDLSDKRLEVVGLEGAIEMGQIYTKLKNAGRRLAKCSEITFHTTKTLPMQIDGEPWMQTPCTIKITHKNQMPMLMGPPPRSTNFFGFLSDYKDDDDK
By IC50 is commonly meant the concentration that gives 50% inhibition. Turning to `COCc1ccc2c(N3CCC(C)(c4nc5cc(C)ccc5o4)CC3)c(C#N)c(=O)n(C)c2c1` [Example 212, 7-(methoxymethyl)-1-methyl-4-[4-methyl-4-(5-methyl-1,3-benzoxazol-2-yl)piperidin-1-yl]-2-oxo-1,2-dihydroquinoline-3-carbonitrile], the IC50 was 0.3 nM.
On to `Cc1ccccc1C1CCN(c2c(C#N)c(=O)n(C)c3ccccc23)CC1` [Example 82, 1-methyl-4-[4-(2-methylphenyl)piperidin-1-yl]-2-oxo-1,2-dihydroquinoline-3-carbonitrile], for which the IC50 was 11 nM.
To `COCCc1ccc2nc(C3CCN(c4c(C#N)c(=O)n(C)c5ccccc45)CC3)oc2c1` [Example 284, 4-{4-[6-(2-methoxyethyl)-1,3-benzoxazol-2-yl]piperidin-1-yl}-1-methyl-2-oxo-1,2-dihydroquinoline-3-carbonitrile] belongs 9.3 nM.
On to `COc1ccc2c(c1)c(N1CCC(c3nc(-c4cccc(C)c4)no3)CC1)c(C(N)=O)c(=O)n2C` [Example 520, 6-methoxy-1-methyl-4-{4-[3-(3-methylphenyl)-1,2,4-oxadiazol-5-yl]piperidin-1-yl}-2-oxo-1,2-dihydroquinoline-3-carboxamide], for which the IC50 amounted to 37 nM.
To `Cn1c(=O)c(C#N)c(N2CCC(c3cccc(NS(=O)(=O)c4ccccc4)c3)CC2)c2ccccc21` [Example 68, N-{3-[1-(3-cyano-1-methyl-2-oxo-1,2-dihydroquinolin-4-yl)piperidin-4-yl]phenyl}benzenesulfonamide] belongs 99 nM.
To `CCCOc1cccc2c(N3CCC(C)(c4nc5cc(C)ccc5o4)CC3)c(C#N)c(=O)n(C)c12` [Example 273, 1-methyl-4-[4-methyl-4-(5-methyl-1,3-benzoxazol-2-yl)piperidin-1-yl]-2-oxo-8-propoxy-1,2-dihydroquinoline-3-carbonitrile] belongs 119 nM.
On to `Cn1c(=O)c(C(N)=O)c(N2CCC(C)(c3nnc(-c4cccc(Cl)c4)o3)CC2)c2ccccc21` [Example 465, 4-{4-[5-(3-chlorophenyl)-1,3,4-oxadiazol-2-yl]-4-methylpiperidin-1-yl}-1-methyl-2-oxo-1,2-dihydroquinoline-3-carboxamide], for which the IC50 amounted to 175 nM.
To `Cn1c(=O)c(C(N)=O)c(N2CCC(C)(c3nc4ccccc4o3)CC2)c2ccc(F)cc21` [Example 303, 4-[4-(1,3-benzoxazol-2-yl)-4-methylpiperidin-1-yl]-7-fluoro-1-methyl-2-oxo-1,2-dihydroquinoline-3-carboxamide] belongs 1.9 nM; to `Cn1c(=O)c(C(N)=O)c(N2CCC(C)(c3nc4ccccc4o3)CC2)c2cccc(Cl)c21` [Example 310, 4-[4-(1,3-benzoxazol-2-yl)-4-methylpiperidin-1-yl]-8-chloro-1-methyl-2-oxo-1,2-dihydroquinoline-3-carboxamide], 34 nM; to `Cn1c(=O)c(C#N)c(N2CCC(c3nc4cc(Cl)ccc4s3)CC2)c2ccccc21` [Example 18, 4-[4-(5-chloro-1,3-benzothiazol-2-yl)piperidin-1-yl]-1-methyl-2-oxo-1,2-dihydroquinoline-3-carbonitrile], 3.7 nM.
As for `Cn1c(=O)c(C#N)c(N2CCC(c3nc4cccc(F)c4o3)CC2)c2ccccc21` [Example 3, 4-[4-(7-fluoro-1,3-benzoxazol-2-yl)piperidin-1-yl]-1-methyl-2-oxo-1,2-dihydroquinoline-3-carbonitrile], the figure is 2.6 nM; as for `Cn1c(=O)c(C#N)c(N2CCC(c3cnc4ccccc4n3)CC2)c2ccccc21` [Example 321, 1-methyl-2-oxo-4-[4-(quinoxalin-2-yl)piperidin-1-yl]-1,2-dihydroquinoline-3-carbonitrile], 75 nM; as for `Cn1c(=O)c(C#N)c(N2CCC(c3nc4cc(C5COC5)ccc4o3)CC2)c2ccccc21` [Example 287, 1-methyl-4-{4-[5-(oxetan-3-yl)-1,3-benzoxazol-2-yl]piperidin-1-yl}-2-oxo-1,2-dihydroquinoline-3-carbonitrile], 22 nM.
Consider `CC(=O)c1ccc(C2(C)CCN(c3c(C#N)c(=O)n(C)c4ccccc34)CC2)cc1` [Example 335, 4-[4-(4-acetylphenyl)-4-methylpiperidin-1-yl]-1-methyl-2-oxo-1,2-dihydroquinoline-3-carbonitrile], for which the IC50 amounted to 2.3 nM.
As for `CCC(C)c1ccc2c(c1)c(N1CCC(C)(c3nc4cc(C)ccc4o3)CC1)c(C#N)c(=O)n2C` (centres unmarked) [Example 211, 6-(butan-2-yl)-1-methyl-4-[4-methyl-4-(5-methyl-1,3-benzoxazol-2-yl)piperidin-1-yl]-2-oxo-1,2-dihydroquinoline-3-carbonitrile], the figure is 456 nM; as for `Cc1ccc2oc(C3CCN(c4c(C(N)=O)c(=O)n(C)c5ccccc45)CC3)nc2c1` [Example 107, 1-methyl-4-[4-(5-methyl-1,3-benzoxazol-2-yl)piperidin-1-yl]-2-oxo-1,2-dihydroquinoline-3-carboxamide], 2.3 nM.
Regarding `Cc1ccc2oc([C@H]3CCN(c4c(C#N)c(=O)n(C)c5ccccc45)[C@@H](C)C3)nc2c1` [Example 234, 1-methyl-4-[(2S,4S)-2-methyl-4-(5-methyl-1,3-benzoxazol-2-yl)piperidin-1-yl]-2-oxo-1,2-dihydroquinoline-3-carbonitrile], the IC50 came to 1.8 nM.
As for `Cc1ccc2oc(C3(C)CCN(c4c(C#N)c(=O)n(C)c5cc(OCC6(O)CC6)ccc45)CC3)nc2c1` [Example 239, 7-[(1-hydroxycyclopropyl)methoxy]-1-methyl-4-[4-methyl-4-(5-methyl-1,3-benzoxazol-2-yl)piperidin-1-yl]-2-oxo-1,2-dihydroquinoline-3-carbonitrile], the figure is 0.6 nM; as for `Cn1c(=O)c(C#N)c(N2CCC(c3cccc(NC(=O)c4ccccc4)c3)CC2)c2ccccc21` [Example 76, N-{3-[1-(3-cyano-1-methyl-2-oxo-1,2-dihydroquinolin-4-yl)piperidin-4-yl]phenyl}benzamide], 50 nM; as for `COc1ccc2cc(C3CCN(c4c(C(N)=O)c(=O)n(C)c5ccccc45)CC3)ccc2c1` [Example 457, 4-[4-(6-methoxynaphthalen-2-yl)piperidin-1-yl]-1-methyl-2-oxo-1,2-dihydroquinoline-3-carboxamide], 6.8 nM.
To `Cn1c(=O)c(C#N)c(N2CCC(F)(c3nc4ccccc4o3)CC2)c2ccccc21` [Example 389, 4-[4-(1,3-benzoxazol-2-yl)-4-fluoropiperidin-1-yl]-1-methyl-2-oxo-1,2-dihydroquinoline-3-carbonitrile] belongs 3.1 nM; to `Cc1cc(C#N)c2cc(C3CCN(c4c(C#N)c(=O)n(C)c5ccccc45)CC3)ccc2n1` [Example 344, 6-[1-(3-cyano-1-methyl-2-oxo-1,2-dihydroquinolin-4-yl)piperidin-4-yl]-2-methylquinoline-4-carbonitrile], 489 nM.
Turning to `Cn1c(=O)c(C#N)c(N2CCC(c3ccc(C#N)cc3)CC2)c2ccccc21` [Example 86, 4-[4-(4-cyanophenyl)piperidin-1-yl]-1-methyl-2-oxo-1,2-dihydroquinoline-3-carbonitrile], the IC50 turned out to be 54 nM.
To `Cn1c(=O)c(C#N)c(N2CCC(C)(c3nc4cc(C(C)(C)C)ccc4o3)CC2)c2ccccc21` [Example 24, 4-[4-(5-tert-butyl-1,3-benzoxazol-2-yl)-4-methylpiperidin-1-yl]-1-methyl-2-oxo-1,2-dihydroquinoline-3-carbonitrile] belongs 45 nM.
Turning to `Cc1ccccc1-n1ccc(C2CCN(c3c(C(N)=O)c(=O)n(C)c4ccccc34)CC2)n1` [Example 473, 1-methyl-4-{4-[1-(2-methylphenyl)-1H-pyrazol-3-yl]piperidin-1-yl}-2-oxo-1,2-dihydroquinoline-3-carboxamide], the IC50 amounted to 23 nM.
To `Cc1ccc2oc(C3CCN(c4c(C(N)=O)c(=O)n(C)c5cc(OCC6CO6)ccc45)CC3)nc2c1` (centres unmarked) [Example 481, 1-methyl-4-[4-(5-methyl-1,3-benzoxazol-2-yl)piperidin-1-yl]-7-{[oxiran-2-yl]methoxy}-2-oxo-1,2-dihydroquinoline-3-carboxamide] belongs 2 nM; to `Cc1ccccc1-n1ccc(C2CCN(c3c(C#N)c(=O)n(C)c4ccccc34)CC2)n1` [Example 367, 1-methyl-4-{4-[1-(2-methylphenyl)-1H-pyrazol-3-yl]piperidin-1-yl}-2-oxo-1,2-dihydroquinoline-3-carbonitrile], 21 nM; to `Cc1ccc2c(N3CCC(C)(c4nc5ccccc5o4)CC3)c(C#N)c(=O)n(C)c2c1` [Example 218, 4-[4-(1,3-benzoxazol-2-yl)-4-methylpiperidin-1-yl]-1,7-dimethyl-2-oxo-1,2-dihydroquinoline-3-carbonitrile], 0.6 nM.
Take `Cc1ccccc1-c1nnc(C2CCN(c3c(C#N)c(=O)n(C)c4ccccc34)CC2)o1` [Example 351, 1-methyl-4-{4-[5-(2-methylphenyl)-1,3,4-oxadiazol-2-yl]piperidin-1-yl}-2-oxo-1,2-dihydroquinoline-3-carbonitrile]: the IC50 was determined as 87 nM.
To `Cn1c(=O)c(C#N)c(N2CCC(c3nc4ccccc4o3)CC2)c2cccc(Cl)c21` [Example 162, 4-[4-(1,3-benzoxazol-2-yl)piperidin-1-yl]-8-chloro-1-methyl-2-oxo-1,2-dihydroquinoline-3-carbonitrile] belongs 134 nM; to `Cc1cc2c(N3CCC(c4ccn(-c5ccccc5C)n4)CC3)c(C#N)c(=O)n(C)c2cc1NCCO` [Example 561, 7-[(2-hydroxyethyl)amino]-1,6-dimethyl-4-{4-[1-(2-methylphenyl)-1H-pyrazol-3-yl]piperidin-1-yl}-2-oxo-1,2-dihydroquinoline-3-carbonitrile], 1.4 nM.
For the molecule `COCc1ccc2nc(C3(C)CCN(c4c(C#N)c(=O)n(C)c5ccccc45)CC3)oc2c1` [Example 392, 4-{4-[6-(methoxymethyl)-1,3-benzoxazol-2-yl]-4-methylpiperidin-1-yl}-1-methyl-2-oxo-1,2-dihydroquinoline-3-carbonitrile], the IC50 came to 6.7 nM.

The record behind these values is patent US11998539B2, “Substituted aminoquinolones as DGKalpha inhibitors for immune activation” (Bayer Aktiengesellschaft, priority 2019, dated 2024).
